Patent US4933368A, “N-phenylbenzamide derivatives” (Godecke Aktiengesellschaft, priority 1983, dated 1990)

Key:
[1] = system: peripheral leukocytes and lymphocytes; details: conventional cytostatics and immunosuppressive agents; cited from earlier work
Electro-convulsion = test: Maximal electroconvulsion test; type: in vivo; details: Mus musculus, po; i.g., mice
Water solubility = type: physicochemical; details: dihydrochloride
From the text: Using a solution of HCl-gas in ethanol the compound can be converted to dihydrochloride, which is 4% water soluble.

| Structure (SMILES) | reattainment of normal hematological findings after discontinuation [1] | also measured |
| --- | --- | --- |
| Cn1cnc([N+](=O)[O-])c1Sc1ncnc2nc[nH]c12 [Azathioprine] | No comparable short-term extensive reattainment of normal hematological findings |  |
| O=C1NC(=O)C(c2ccccc2)(c2ccccc2)N1 [Diphenylhydantoin, reference compound] |  | ED50 (Electro-convulsion): 22.5 mg/kg |
| O=P1(N(CCCl)CCCl)NCCCO1 (centres unmarked) [cyclophosphamide] | No comparable short-term extensive reattainment of normal hematological findings |  |
| Cl.Cl.Nc1ccc(C(=O)Nc2ccccc2N)cc1 [dihydrochloride, 4-Amino-N-(2'aminophenyl)-benzamide-dihydrochloride] |  | solubility (Water solubility): 40 mg/mL |
| CN(Cc1cnc2nc(N)nc(N)c2n1)c1ccc(C(=O)N[C@@H](CCC(=O)O)C(=O)O)cc1 [methotrexate] | No comparable short-term extensive reattainment of normal hematological findings |  |
